# Results: US20210260010A1, “COMPOSITIONS AND METHODS FOR THE REDUCTION OR TREATMENT OF INFLAMMATION” (AXCELLA HEALTH INC., priority 2018, published 2021)
# Tests used:
# Type in all cases: cell-based
# MCP-1 = MCP-1 chemokine secretion by TNFα-stimulated primary human hepatic stellate cells (ELISA); conditions: for MCP-1 chemokine secretion, per-cell normalized, fold change from plasma amino acid background: primary human hepatic stellate cells, two donors, TNFα 3 ng/mL, 12 hours
# Method: Primary human hepatic stellate cells were obtained from Samsara Sciences and grown in Complete HSC Medium to […] confluence in T75 or T150 flasks below passage 10 were seeded into 96-well plates and incubated for 6 hours at 37° C., 5% CO2 in a humidified incubator. After 6 hours, plates were removed from the incubator washed with DPBS and pretreated (±single amino acid dropout, ±supplemental amino acid dose; see experiment for medium composition) overnight, ˜14-15 hours. After overnight pretreatment, the medium was removed from the cells, and the same pretreatment medium, now supplemented with 3 ng/mL TNFα was applied. Plates were incubated for 12 hours at 37° C., 5% CO2. After 12 hour stimulus with TNFα, supernatant was removed and frozen at −80° C. in two separate aliquots. Plates were washed and incubated with CCK-8 viability reagent (Dojindo) for 1 hour. Viability was measured on the Synergy plate reader. Immediately, the medium was removed and the plates were fixed for immunofluorescence staining.
# Human CCL2/MCP1 and Human IL-6 were measured by ELISA (Human […] DuoSet ELISA, R&D Systems; Human IL-6 DuoSet ELISA, R&D Systems) at ⅕ and 1/20 dilution in 1× Reagent Diluent (Reagent Ancillary Kit 2, R&D Systems). Data were normalized to the specific per well cell density determined by Hoechst stained nuclei count.
# Tables 35-38 show per-cell normalized MCP-1 chemokine secretion in primary human hepatic stellate cells from two donors as a fold change from the plasma amino acid background. Statistical significance calculated by one-way ANOVA with Dunnett's multiple comparison test within each treatment group.
# IL-6 = assay: LPS-induced IL-6 secretion in primary human monocyte-derived macrophages (ELISA); conditions: for IL-6 Measurements Mean: LPS 0.15 ng/mL, baseline subtracted; for LPS-induced IL-6 secretion: macrophages, 0.15 ng/mL LPS
# Method: (§1) Unpurified buffy coats (Research Blood Components) were carefully poured into 50 mL centrifuge tubes and diluted with room temperature Dulbecco's Phosphate Buffered Saline (dPBS) with Calcium and Magnesium (Gibco). Diluted buffy coats were further divided into four total 50 mL centrifuge tubes at 20 mL per tube. Lymphocyte Separation Medium (Corning) was carefully pipetted to the bottom of each centrifuge tube. Mixtures were centrifuged at 850× g for 32 minutes at 20° C. with 0 deceleration and acceleration.
# (§2) The PBMC layer was separated from other components after centrifugation and added to new 50 mL centrifuge tube containing 25 mL dPBS. Total volume was brought up to 50 mL with dPBS and centrifuged at 600×g for 10 minutes at 20° C. with acceleration of 9, deceleration of 5. Supernatant was carefully removed from cell pellets. The cell pellets were resuspended using 10 mL dPBS. Total volume was then brought up to 50 mL using dPBS and centrifuged at 450×g for 5 min at 20° C. with acceleration of 9, deceleration of 9. The supernatant removal and cell pellet resuspension was repeated again.
# (§3) The supernatant was then carefully removed from cell pellets. Cell pellets were resuspended in 10 mL dPBS without calcium or magnesium and filtered through a 70 uM cell strainer. The total PBMC number was determined using a Cellometer K2 automated cell counter. A total of 5E6 cells were saved for flow cytometric analysis. Remaining cells were centrifuged at 490×g for 5 minutes at 20° C. with acceleration of 9, deceleration of 9.
# (§4) CD14+ cells were selected using EasySep™ Human CD14 Positive Selection Kit II ([…] Technologies). Cells were resuspended in cold EasySep™ Buffer ([…] Technologies) at 1×10^8 cells/mL. A total of 100 uL/mL EasySep™ Human CD14 Positive Selection Cocktail II was added to the cell suspension, mixed, and incubated at room temperature for 10 minutes. A total of 100 uL/mL RapidSpheres were added to the mixture and incubated at room temperature for 3 minutes after mixing, then RoboSep buffer was added to bring up the total volume to 10 mL. The mixture in a 15 mL tube was placed in magnet and incubated at room temperature for 3 minutes. Supernatant was discarded and 10 mL fresh EasySep™ buffer was added to 15 mL tube. The addition of RoboSep buffer, mixing, and discarding of supernatant was repeated two more times.
# (§5) Negative and positive fractions were centrifuged at 490×g for 5 minutes at 20° C. with acceleration of 9, deceleration of 9, and resuspended in DMEM (Gibco) and 10% Heat Inactivated Fetal Bovine Serum (Atlanta Bio) and Penicillin/Streptomycin. Cells were counted and centrifuged again at 490× g for 5 minutes at 20° C. with acceleration of 9, deceleration of 9. After centrifugation, cell were resuspended in DMEM (Gibco) and 10% Heat Inactivated Fetal Bovine Serum (Atlanta Bio) and Penicillin/Streptomycin containing 500 U/mL […] and plated at 1-2×10^6 cells/mL on 10 cm tissue culture plates. Cells were kept in 37° C., 5% CO2 in between feedings/harvest.
# (§6) Cells were fed every 3-4 days by removing media and unattached cells, centrifuging at 490× g for 5 minutes at 20° C. with acceleration of 9, deceleration of 9, and resuspending in fresh DMEM (Gibco) and 10% Heat Inactivated Fetal Bovine Serum (Atlanta Bio) and Penicillin/Streptomycin containing GM-CSF. Resuspended cells were seeded back onto 10 cm tissue culture plates and incubated at 37° C., 5% CO2. Differentiated macrophages were used for subsequent experiments.
# (§7) Primary human PMBC derived macrophages were seeded on day 0 at 3.0E4 cells per well in 96-well microplates (ThermoFisher) in Dulbecco's Modified Eagle Medium (DMEM) (Gibco) supplemented with penicillin-streptomycin (Hyclone) and 10% heat inactivated fetal bovine serum (HI-FBS) (Atlanta Bio) and incubated overnight at 37° C., 5% CO2. On day 1, cells were washed once with 150 uL per well DPBS (Gibco) and treated with 75 uL of: • a. […]
# TNFα = assay: LPS-induced TNFα secretion in primary human monocyte-derived macrophages (ELISA); set-up: TNFa Measurements Mean: unit not given here; conditions: for TNFa Measurements Mean: Donor 1, LPS 0.15 ng/mL; for TNFa Measurements Mean / Donor 2 TNFa Measurements Mean / Donor 3 TNFa Measurements Mean: baseline subtracted
# Method: as §1, §2, §3, §4, §5, §6, §7
# [1] = Donor 2, Conc. 153 μM (baseline)
# [2] = Donor 2, Conc. 109 μM (baseline)
compound,measurement,setting,value
"CC(C)C[C@H](N)C(=O)O [Leucine, L-Leucine]",Fold Change MCP1 Secretion Normalized Per Cell,"MCP-1; donor 3, Conc. 153 μM (plasma background, reference)",1.0000
same,Fold Change MCP1 Secretion Normalized Per Cell,"MCP-1; donor 3, Conc. 3054 μM",1.1479
same,Fold Change MCP1 Secretion Normalized Per Cell,"MCP-1; donor 3, Conc. 7635 μM",1.3054
same,Fold Change MCP1 Secretion Normalized Per Cell,"MCP-1; donor 3, Conc. 15270 μM",1.1808
same,Fold Change MCP1 Secretion Normalized Per Cell,"MCP-1; donor 4, Conc. 153 μM (plasma background, reference)",1.0000
same,"MCP-1 chemokine secretion, per-cell normalized, fold change from plasma amino acid background",MCP-1,no significant impact
same,IL-6 Measurements Mean,"IL-6; Donor 1, Conc. 153 μM (baseline)",0
same,IL-6 Measurements Mean,"IL-6; Donor 1, Conc. 3054 μM",244.9743
same,IL-6 Measurements Mean,"IL-6; Donor 1, Conc. 7635 μM",−69.9873
same,IL-6 Measurements Mean,"IL-6; Donor 1, Conc. 15270 μM",84.46
same,IL-6 Measurements Mean,IL-6; [1],7.11E−15
same,IL-6 Measurements Mean,"IL-6; Donor 2, Conc. 3054 μM",29.61
same,IL-6 Measurements Mean,"IL-6; Donor 2, Conc. 7635 μM",30.46
same,IL-6 Measurements Mean,"IL-6; Donor 2, Conc. 15270 μM",47.6
same,LPS-induced IL-6 secretion,IL-6; Donor 2,increased
same,TNFa Measurements Mean,TNFα; Conc. 153 μM (baseline),0
same,TNFa Measurements Mean,TNFα; Conc. 3054 μM,42.04
same,TNFa Measurements Mean,TNFα; Conc. 7635 μM,−23.04
same,TNFa Measurements Mean,TNFα; Conc. 15270 μM,−46.21
same,Donor 2 TNFa Measurements Mean,TNFα; [1],0
same,Donor 2 TNFa Measurements Mean,"TNFα; Donor 2, Conc. 3054 μM",31.74
same,Donor 2 TNFa Measurements Mean,"TNFα; Donor 2, Conc. 7635 μM",41.98
same,Donor 2 TNFa Measurements Mean,"TNFα; Donor 2, Conc. 15270 μM",46.69
same,LPS-induced TNFα secretion,"TNFα; macrophages, Donor 2, 0.15 ng/mL LPS",increased
"N=C(N)NCCC[C@H](N)C(=O)O [Arginine, L-Arginine]",Fold Change MCP1 Secretion Normalized Per Cell,"MCP-1; donor 3, Conc. 109 μM (plasma background, reference)",1.0000
same,Fold Change MCP1 Secretion Normalized Per Cell,"MCP-1; donor 3, Conc. 1088 μM",0.9435
same,Fold Change MCP1 Secretion Normalized Per Cell,"MCP-1; donor 3, Conc. 2720 μM",0.8821
same,Fold Change MCP1 Secretion Normalized Per Cell,"MCP-1; donor 3, Conc. 5440 μM",0.7840
same,Fold Change MCP1 Secretion Normalized Per Cell,"MCP-1; donor 4, Conc. 109 μM (plasma background, reference)",1.0000
same,Fold Change MCP1 Secretion Normalized Per Cell,"MCP-1; donor 4, Conc. 1088 μM",1.0453
same,Fold Change MCP1 Secretion Normalized Per Cell,"MCP-1; donor 4, Conc. 2720 μM",1.0446
same,Fold Change MCP1 Secretion Normalized Per Cell,"MCP-1; donor 4, Conc. 5440 μM",0.9456
same,"MCP-1 chemokine secretion, per-cell normalized, fold change from plasma amino acid background",MCP-1,no significant impact
same,IL-6 Measurements Mean,"IL-6; Donor 1, Conc. 109 μM (baseline)",0
same,IL-6 Measurements Mean,"IL-6; Donor 1, Conc. 1088 μM",−181.36
same,IL-6 Measurements Mean,"IL-6; Donor 1, Conc. 2720 μM",−186.57
same,IL-6 Measurements Mean,"IL-6; Donor 1, Conc. 5440 μM",357.4394
same,IL-6 Measurements Mean,IL-6; [2],2.37E−15
same,IL-6 Measurements Mean,"IL-6; Donor 2, Conc. 1088 μM",−9.701
same,IL-6 Measurements Mean,"IL-6; Donor 2, Conc. 2720 μM",−13.6102
same,IL-6 Measurements Mean,"IL-6; Donor 2, Conc. 5440 μM",−12.4164
same,IL-6 Measurements Mean,"IL-6; Donor 3, Conc. 109 μM (baseline)",0
same,IL-6 Measurements Mean,"IL-6; Donor 3, Conc. 1088 μM",31.5786
same,IL-6 Measurements Mean,"IL-6; Donor 3, Conc. 2720 μM",−7.503
same,IL-6 Measurements Mean,"IL-6; Donor 3, Conc. 5440 μM",−6.81
same,LPS-induced IL-6 secretion,IL-6; Donor 1,increased
same,TNFa Measurements Mean,TNFα; Conc. 109 μM (baseline),0
same,TNFa Measurements Mean,TNFα; Conc. 1088 μM,−24.33
same,TNFa Measurements Mean,TNFα; Conc. 2720 μM,5.12
same,TNFa Measurements Mean,TNFα; Conc. 5440 μM,62.06
same,Donor 2 TNFa Measurements Mean,TNFα; [2],1.42E−14
same,Donor 2 TNFa Measurements Mean,"TNFα; Donor 2, Conc. 1088 μM",−12.7222
same,Donor 2 TNFa Measurements Mean,"TNFα; Donor 2, Conc. 2720 μM",−3.763
same,Donor 2 TNFa Measurements Mean,"TNFα; Donor 2, Conc. 5440 μM",−0.5738
same,Donor 3 TNFa Measurements Mean,TNFα; Conc. 109 μM (baseline),3.55E−15
same,Donor 3 TNFa Measurements Mean,TNFα; Conc. 1088 μM,3.131
same,Donor 3 TNFa Measurements Mean,TNFα; Conc. 2720 μM,−0.9669
same,Donor 3 TNFa Measurements Mean,TNFα; Conc. 5440 μM,−1.767
